This passage reports IC50 results from BindingDB's records for doi:10.1016/j.bmcl.2014.01.058 (Novartis Institutes For Biomedical Research, 2014).

Experiment [1] in a line: Inhibition of RSK2 in mouse BAF cells assessed as YB1 phosphorylation at Ser102 by electrochemiluminescence assay.
Experiment [2] is described as follows: Inhibition of recombinant full length RSK2 (unknown origin) using biotin-AGAGRSRHSSYPAGT-OH as substrate after 150 mins.

One may read the IC50 as the midpoint of a concentration-inhibition curve. Take `COc1cc(Nc2nc3cccc(-c4cccc5cn[nH]c45)c3o2)cc(OC)c1OC`: the figures for the 50% inhibitory concentration (IC50) in experiment [1] and in experiment [2] were 5700 nM and 50 nM, respectively.

On to `COc1cc(Nc2nc3cccc(-c4c(OC)cccc4OC)c3o2)cc(OC)c1OC`, for which the IC50 in experiment [1] is > 20000 nM; in experiment [2], 1200 nM.

On to `COc1cc(Nc2nc3cccc(-c4ccccc4OC(F)(F)F)c3o2)cc(OC)c1OC`, for which the values for the 50% inhibitory concentration (IC50) in experiment [1] and in experiment [2] were > 20000 nM and 4000 nM, respectively.

On to `COc1cc(Nc2nc3cccc(-c4ccccc4F)c3o2)cc(OC)c1OC`, for which the results for the concentration for half-maximal inhibition (IC50) in experiment [1] and in experiment [2] were 18000 nM and 220 nM, respectively.

Consider `COc1cccc(F)c1-c1cccc2nc(Nc3cccc(S(N)(=O)=O)c3)oc12`, for which the IC50 in experiment [1] is > 20000 nM; in experiment [2] it was 340 nM.

In the case of `COc1cccc(F)c1-c1cccc2nc(NC3CCCCC3)oc12`, the concentration for half-maximal inhibition (IC50) in experiment [1] was > 20000 nM; in experiment [2] it was 620 nM.

Consider `COc1cc(Nc2nc3cccc(-c4c(F)cccc4OC(C)C)c3o2)cc(OC)c1OC`, for which the IC50 was > 20000 nM in experiment [1] and 970 nM in experiment [2].

With `COc1ccccc1-c1cccc2nc(Nc3cc(OC)c(OC)c(OC)c3)oc12`, the results for the half-inhibitory concentration (IC50) in experiment [1] and in experiment [2] were 5700 nM and 20 nM, respectively.

Consider `COc1ccc(Nc2nc3cccc(-c4c(F)cccc4OC)c3o2)cc1O[C@H]1CCNC1`, for which the half-maximal inhibitory concentration (IC50) worked out at 6300 nM in experiment [1] and 10 nM in experiment [2].

Take `COc1ccc(Nc2nc3cccc(-c4c(F)cccc4OC)c3o2)cc1OC`: the IC50 in experiment [1] amounted to 6500 nM; in experiment [2] it was 70 nM.

On to `COc1ccc(F)cc1-c1cccc2nc(Nc3cc(OC)c(OC)c(OC)c3)oc12`, for which the half-inhibitory concentration (IC50) turned out to be 3700 nM in experiment [1] and 40 nM in experiment [2].

On to `CCOc1cccc(Nc2nc3cccc(-c4c(F)cccc4OC)c3o2)c1`, for which the half-inhibitory concentration (IC50) in experiment [1] was > 20000 nM; in experiment [2] it was 730 nM.

Consider `COc1ccc(Nc2nc3cccc(-c4c(F)cccc4OC)c3o2)cc1N`, for which the IC50 in experiment [1] was > 20000 nM; in experiment [2] it was 220 nM.

In the case of `COc1cccc(F)c1-c1cccc2nc(N)oc12`, the IC50 was > 20000 nM in experiment [1] and 2800 nM in experiment [2].

In the case of `COc1cc(Nc2nc3cccc(-c4nc(C)[nH]c4C)c3o2)cc(OC)c1OC`, the results for the 50% inhibitory concentration (IC50) in experiment [1] and in experiment [2] were 19800 nM and 560 nM, respectively.

As to `COc1cc(C)ccc1-c1cccc2nc(Nc3cc(OC)c(OC)c(OC)c3)oc12`, the values for the concentration for half-maximal inhibition (IC50) in experiment [1] and in experiment [2] were 9700 nM and 40 nM, respectively.

As for `COc1cccc(Nc2nc3cccc(-c4c(F)cccc4OC)c3o2)c1`, the concentration for half-maximal inhibition (IC50) is 15400 nM in experiment [1] and 410 nM in experiment [2].

Turning to `CCOc1cccc(F)c1-c1cccc2nc(Nc3cc(OC)c(OC)c(OC)c3)oc12`, the IC50 in experiment [1] stood at 10800 nM; in experiment [2] it was 490 nM.

In the case of `COc1cccc(F)c1-c1cccc2nc(NC3CCOCC3)oc12`, the values for the IC50 in experiment [1] and in experiment [2] were > 20000 nM and 3200 nM, respectively.

Turning to `COc1cccc(Nc2nc3cccc(-c4c(F)cccc4OC)c3o2)n1`, the half-maximal inhibitory concentration (IC50) in experiment [1] was > 20000 nM; in experiment [2], 620 nM.

Consider `COc1cc(Nc2nc3cccc(-c4ccccc4-c4cn[nH]c4)c3o2)cc(OC)c1OC`, for which the IC50 was > 20000 nM in experiment [1] and 9300 nM in experiment [2].

On to `COc1ccc(C)cc1-c1cccc2nc(Nc3cc(OC)c(OC)c(OC)c3)oc12`, for which the IC50 in experiment [1] turned out to be 14500 nM; in experiment [2] it was 1100 nM.

Regarding `COc1cc(Nc2nc3cccc(-c4cccc5[nH]cnc45)c3o2)cc(OC)c1OC`, the IC50 worked out at 800 nM in experiment [1] and 4 nM in experiment [2].

Regarding `COc1cc(Nc2nc3cccc(-c4c(F)cccc4OC)c3o2)cc(OC)c1`, the IC50 in experiment [1] was 17200 nM; in experiment [2] it was 210 nM.

For `COc1cccc(F)c1-c1cccc2nc(Nc3ccccc3)oc12`, the concentration for half-maximal inhibition (IC50) in experiment [1] was > 20000 nM; in experiment [2] it was 1000 nM.

In the case of `COc1ccc(Nc2nc3cccc(-c4c(F)cccc4OC)c3o2)cc1`, the half-inhibitory concentration (IC50) in experiment [1] was > 20000 nM; in experiment [2], 1400 nM.
